The text below walks through data of BindingDB's records for doi:10.1021/acs.jmedchem.7b00882 (The University of Queensland, 2018).

The structures appear in SMILES notation. Peptide text beside a SMILES is read from it.

The nature of assay [1]: Inhibition of C9 binding to C5b678 in […] activated human serum assessed as suppression of human erythrocyte lysis after 1 hr by ELISA.
Assay [2] can be described thus: Inhibition of human serum C1s-mediated lysis of rabbit Ab-sensitized sheep erythrocytes after 60 mins.
A short description of assay [3]: Inhibition of factor D in […]-activated human serum assessed as decrease in human erythrocyte lysis.
A short description of assay [4]: Inhibition of factor D in […]-activated rat serum assessed as decrease in human erythrocyte lysis.
Assay [5] in a line: Inhibition of human serum C2-mediated lysis of antibody-sensitized sheep red blood cells after 30 mins by UV-Vis spectrophotometric method.

As for `O=C(O)C1=C/C(=C\c2cc(C(c3ccc(O)c(C(=O)O)c3)c3ccc(O)c(C(=O)O)c3)cc(C(=O)O)c2O)C=CC1=O`, the IC50 in assay [1] turned out to be 500 nM.
As to `N=C(N)c1cc2ccc(OC(=O)c3cccs3)cc2s1`, the IC50 in assay [2] turned out to be 46 nM.
For the molecule `CC(=O)Oc1ccc(-c2ccc(OC(C)=O)c(C(=O)O)c2)cc1C(=O)O`, the IC50 in assay [3] and in assay [4] was 100 nM each time.
Consider `CC(=O)Oc1ccc(Cc2ccc(OC(C)=O)c(C(=O)O)c2)cc1C(=O)O`, for which the IC50 in assay [3] and in assay [4] was 100 nM in each case.
Turning to `O=C(O)C1=C/C(=C(/c2ccc(O)c(C(=O)O)c2)c2cc(Cc3cc(C(c4ccc(O)c(C(=O)O)c4)c4ccc(O)c(C(=O)O)c4)cc(C(=O)O)c3O)cc(C(=O)O)c2O)C=CC1=O`, in assay [1], the IC50 was found to be 500 nM.
Consider `CC(=O)N[C@@H](CCCNC(=N)N)C(=O)N[C@@H](CC(C)C)C(=O)N[C@@H](CC(C)C)C(=O)N[C@@H](CC(C)C)C(=O)N[C@@H](C)C(=O)N[C@H](C=O)CCCNC(=N)N` (Ac-RLLLAR-aldehyde), for which, in assay [5], the IC50 turned out to be 28000 nM.
Regarding `O=C(O)C1=CC(=C(c2ccc(O)c(C(=O)O)c2)c2ccc(O)c(C(=O)O)c2)C=CC1=O` [MLS002153482], the IC50 in assay [1] came out at 500 nM.
